From patent US12559529B2, “NPY2 receptor agonists” (Boehringer Ingelheim International GmbH, priority 2019, dated 2026)

Legend:
[1] = molecular target: T1, Human Neuropeptide Y2 Receptor (Homo sapiens, UniProt P49146); experiment: Radioligand binding competition assay (RLB); details: Table 3; human 125I-PYY (1-36) 0.02 nM, Y2 receptor membranes; read-out: Ki
T1 construct: purchased CHEMICON HTS066M
T1 sequence (P49146 1-381): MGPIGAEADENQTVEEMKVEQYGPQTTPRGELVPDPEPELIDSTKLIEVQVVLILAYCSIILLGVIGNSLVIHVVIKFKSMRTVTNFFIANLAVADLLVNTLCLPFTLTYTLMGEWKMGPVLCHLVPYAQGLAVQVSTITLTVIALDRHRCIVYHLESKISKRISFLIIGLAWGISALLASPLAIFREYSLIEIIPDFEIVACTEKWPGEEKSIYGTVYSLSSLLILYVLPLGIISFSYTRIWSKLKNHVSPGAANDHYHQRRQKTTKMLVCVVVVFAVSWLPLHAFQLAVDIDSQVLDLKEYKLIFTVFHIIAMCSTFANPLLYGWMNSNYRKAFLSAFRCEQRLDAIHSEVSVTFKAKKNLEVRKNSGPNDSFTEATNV
Summary of the method: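 Competition binding on human Y2 receptor membranes, 0.5 μg protein/well, in 50 mM HEPES, 5 mM MgCl2, 1 mM CaCl2, pH 7.4, 0.2% ovalbumin; peptides diluted from 1 mM DMSO stocks.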

human NPY1 receptor = molecular target: T2, human NPY1 receptor (Homo sapiens, UniProt P25929); experiment: HTRF cAMP Gi assay, hY1R; assay type: cell-based; details: Table 4; CHO-K1 cells
T2 construct: expressed in transfected cells; host or cells: CHO-K1
T2 sequence (P25929 1-384): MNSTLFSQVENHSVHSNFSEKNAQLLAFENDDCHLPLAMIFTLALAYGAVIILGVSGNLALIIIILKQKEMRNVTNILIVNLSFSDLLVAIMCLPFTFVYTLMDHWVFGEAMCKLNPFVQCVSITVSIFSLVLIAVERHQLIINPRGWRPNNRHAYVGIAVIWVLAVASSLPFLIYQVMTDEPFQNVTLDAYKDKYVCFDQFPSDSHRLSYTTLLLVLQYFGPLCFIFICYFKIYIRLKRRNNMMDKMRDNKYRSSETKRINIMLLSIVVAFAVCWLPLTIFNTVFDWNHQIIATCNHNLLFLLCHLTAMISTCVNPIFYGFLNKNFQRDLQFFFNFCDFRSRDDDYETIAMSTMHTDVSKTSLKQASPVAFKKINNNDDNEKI

human NPY4 receptor = molecular target: T3, human NPY4 receptor (Homo sapiens, UniProt P50391); experiment: HTRF cAMP Gi assay, hY4R; assay type: cell-based; details: Table 4; CHO-K1 cells
T3 construct: expressed in transfected cells; host or cells: CHO-K1
T3 sequence (P50391 whole entry): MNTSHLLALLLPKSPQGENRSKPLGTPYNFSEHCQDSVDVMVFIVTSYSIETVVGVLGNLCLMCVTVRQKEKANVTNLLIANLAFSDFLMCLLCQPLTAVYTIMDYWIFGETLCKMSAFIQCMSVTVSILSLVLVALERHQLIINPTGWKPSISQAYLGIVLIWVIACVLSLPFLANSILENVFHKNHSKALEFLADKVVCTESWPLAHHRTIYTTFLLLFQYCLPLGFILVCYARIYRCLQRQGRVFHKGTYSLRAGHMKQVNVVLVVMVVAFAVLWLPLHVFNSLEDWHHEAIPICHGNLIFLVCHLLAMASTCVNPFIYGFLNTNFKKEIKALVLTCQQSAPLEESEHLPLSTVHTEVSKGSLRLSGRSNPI

normal NMRI mice = experiment: Effect on acute food intake in normal NMRI mice; assay type: in vivo; details: male NMRI mice, 10 nmol/kg subcutaneously once
Summary of the method: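 Male NMRI mice acclimatized in an HM-2 real-time food intake monitoring system, fasted 6 h before dark phase. Single subcutaneous dose of 10 nmol/kg peptide given 1 h before dark; n=7-8. Food intake expressed as % of vehicle group (50 mM phosphate pH7, 5% Mannitol).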

human NPY2 receptor = molecular target: T4, human NPY2 receptor (Homo sapiens, UniProt P49146); experiment: HTRF cAMP Gi assay, hY2R
T4 sequence (P49146 1-381): T1 sequence (P49146 1-381)

human NPY5 receptor = molecular target: T5, human NPY5 receptor (Homo sapiens, UniProt Q15761); experiment: HTRF cAMP Gi assay, hY5R
T5 sequence (Q15761 1-445): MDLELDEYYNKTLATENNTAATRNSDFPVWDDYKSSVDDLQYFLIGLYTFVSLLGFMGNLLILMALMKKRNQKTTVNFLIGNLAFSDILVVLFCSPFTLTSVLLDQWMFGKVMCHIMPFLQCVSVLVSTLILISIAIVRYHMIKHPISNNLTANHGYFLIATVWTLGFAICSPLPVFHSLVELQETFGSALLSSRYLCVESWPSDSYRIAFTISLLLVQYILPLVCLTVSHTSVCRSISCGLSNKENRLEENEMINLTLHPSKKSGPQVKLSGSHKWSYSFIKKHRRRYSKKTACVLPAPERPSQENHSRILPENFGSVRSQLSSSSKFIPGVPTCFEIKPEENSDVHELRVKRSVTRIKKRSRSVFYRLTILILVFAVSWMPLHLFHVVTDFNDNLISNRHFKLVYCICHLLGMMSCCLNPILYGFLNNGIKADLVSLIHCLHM

SMILES | Ki [1] [nM] | EC50 (human NPY1 receptor) [nM] | EC50 (human NPY4 receptor) [nM] | Acute Food Intake 24 h [% vehicle] (normal NMRI mice) | EC50 (human NPY2 receptor) [nM] | EC50 (human NPY5 receptor) [nM]
CC(C)CC(=O)N[C@@H](C)C(=O)N1CCC[C@H]1C(=O)N[C@@H](CCC(=O)O)C(=O)N[C@@H](CCCCNC(=O)COCCOCCNC(=O)COCCOCCNC(=O)CC[C@H](NC(=O)CCCCCCCCCCCCCCCCC(=O)O)C(=O)O)C(=O)N1CCC[C@H]1C(=O)N[C@@H](CCC(=O)O)C(=O)N[C@@H](CCC(=O)O)C(=O)N[C@@H](CC(=O)O)C(=O)N[C@@H](C)C(=O)N[C@@H](CCC(=O)O)C(=O)N1CCC[C@H]1C(=O)N[C@@H](CCC(=O)O)C(=O)N[C@@H](CCC(=O)O)C(=O)N[C@@H](CC(C)C)C(=O)N[C@@H](CCC(N)=O)C(=O)N[C@@H](CCC(=O)O)C(=O)N[C@@H](Cc1ccc(O)cc1)C(=O)N[C@@H](Cc1ccc(O)cc1)C(=O)N[C@H](C(=O)N[C@@H](CO)C(=O)N[C@@H](CC(C)C)C(=O)N[C@@H](CCCNC(=N)N)C(=O)N[C@@H](Cc1c[nH]cn1)C(=O)N[C@@H](Cc1ccc(O)cc1)C(=O)N[C@@H](Cc1ccc(O)cc1)C(=O)N[C@@H](CC(N)=O)C(=O)N[C@@H](Cc1c[nH]c2ccccc12)C(=O)N[C@@H](CC(C)C)C(=O)N[C@H](C(=O)N[C@@H](CCCNC(=N)N)C(=O)N[C@@H](CCC(N)=O)C(=O)N[C@@H](CCCNC(=N)N)C(=O)N[C@@H](Cc1ccc(O)cc1)C(N)=O)[C@@H](C)O)C(C)C [Compound 105, N{alpha-4}-(3-methylbutanoyl)-N{epsilon-7}-[2-(2-{2-[2-(2-{2-[(4S)-4-carboxy-4-(17-carboxyheptadecanamido)butanamido]ethoxy}ethoxy)acetamido]ethoxy}ethoxy)acetamido]-[4A,7K,9E,13E,18Q,19E,22V,28Y,30W,31L]hPYY (4-36)] | 6.94 | > 5000 | > 5000 | 72 | 0.284 | > 5000
CC(C)CC(=O)N[C@@H](C)C(=O)N1CCC[C@H]1C(=O)N[C@@H](CCC(=O)O)C(=O)N[C@@H](CCCCNC(=O)COCCOCCNC(=O)COCCOCCNC(=O)CC[C@H](NC(=O)CCCCCCCCCCCCCCCCC(=O)O)C(=O)O)C(=O)N1CCC[C@H]1C(=O)N[C@@H](CCC(=O)O)C(=O)N[C@@H](CCC(=O)O)C(=O)N[C@@H](CC(=O)O)C(=O)N[C@@H](C)C(=O)N[C@@H](CO)C(=O)N[C@@H](CCC(=O)O)C(=O)N[C@@H](CCC(=O)O)C(=O)N[C@@H](CCC(=O)O)C(=O)N[C@@H](CC(C)C)C(=O)N[C@@H](CCC(N)=O)C(=O)N[C@@H](CCC(=O)O)C(=O)N[C@@H](Cc1ccc(O)cc1)C(=O)N[C@@H](Cc1ccc(O)cc1)C(=O)N[C@H](C(=O)N[C@@H](CO)C(=O)N[C@@H](CC(C)C)C(=O)N[C@@H](CCCNC(=N)N)C(=O)N[C@@H](Cc1c[nH]cn1)C(=O)N[C@@H](Cc1ccc(O)cc1)C(=O)N[C@@H](Cc1ccc(O)cc1)C(=O)N[C@@H](CC(N)=O)C(=O)N[C@@H](Cc1c[nH]c2ccccc12)C(=O)N[C@@H](CC(C)C)C(=O)N[C@H](C(=O)N[C@@H](CCCNC(=N)N)C(=O)N[C@@H](CCC(N)=O)C(=O)N[C@@H](CCCNC(=N)N)C(=O)N[C@@H](Cc1ccc(O)cc1)C(N)=O)[C@@H](C)O)C(C)C [Compound 164, N{alpha-4}-(3-methylbutanoyl)-N{epsilon-7}-[2-(2-{2-[2-(2-{2-[(4S)-4-carboxy-4-(17-carboxyheptadecanamido)butanamido]ethoxy}ethoxy)acetamido]ethoxy}ethoxy)acetamido]-[4A,7K,9E,14E,18Q,19E,22V,28Y,30W,31L]hPYY (4-36)] | 4.33 | > 5000 | > 5000 | 64 | 0.235 | > 5000
